For the test, the target named is recombinant human SAE enzyme (Homo sapiens (Human), UniProt Q9UBT2). As to the kind of experiment: SAE HTRF enzyme assay. Type of test: biochemical. The following applies: for Percent Inhibition: SAE inhibition at compound concentration 0.111 μM; for IC50: SAE inhibition, class symbols, legend in nM. In a few lines:
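0.11 nM SAE incubated with 0.5 μM ATP, 0.01 μM Ubc9-GST and 0.125 μM Sumo-Flag in HEPES pH 7.5, MgCl2, GSH, BSA, ±inhibitor, 105 min at 24° C. EDTA stop; Eu-cryptate anti-Flag/XL-APC anti-GST HTRF read after 2 h. Values given as single-concentration % inhibition or IC50.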
Background: In TR-FRET formats the signal depends on donor and acceptor labels being close together.

We go through nine compounds from US10780090B2, “Heteroaryl compounds useful as inhibitors of SUMO activating enzyme” (Millennium Pharmaceuticals, Inc., priority 2014, dated 2020).

Usually IC50 stands for the midpoint of a concentration-inhibition curve.

Sequence of recombinant human SAE enzyme (Q9UBT2 whole entry): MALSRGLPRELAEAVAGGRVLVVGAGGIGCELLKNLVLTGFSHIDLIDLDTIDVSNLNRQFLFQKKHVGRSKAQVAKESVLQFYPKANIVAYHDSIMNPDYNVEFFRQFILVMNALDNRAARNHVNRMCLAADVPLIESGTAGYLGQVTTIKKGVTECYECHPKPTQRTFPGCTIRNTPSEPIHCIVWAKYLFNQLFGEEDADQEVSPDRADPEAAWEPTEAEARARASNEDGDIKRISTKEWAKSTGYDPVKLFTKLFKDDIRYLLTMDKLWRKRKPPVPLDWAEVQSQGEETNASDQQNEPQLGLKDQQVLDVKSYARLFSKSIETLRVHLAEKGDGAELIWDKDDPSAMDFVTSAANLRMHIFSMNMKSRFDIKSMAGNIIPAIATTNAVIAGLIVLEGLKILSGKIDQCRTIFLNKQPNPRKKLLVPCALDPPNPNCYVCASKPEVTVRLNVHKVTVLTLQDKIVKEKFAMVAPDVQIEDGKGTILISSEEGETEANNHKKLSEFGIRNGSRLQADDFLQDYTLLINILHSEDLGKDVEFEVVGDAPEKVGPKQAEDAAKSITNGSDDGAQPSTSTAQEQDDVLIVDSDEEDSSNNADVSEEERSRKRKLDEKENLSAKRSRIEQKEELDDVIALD
Sequence of recombinant human SAE enzyme (Q9UBE0 whole entry partner): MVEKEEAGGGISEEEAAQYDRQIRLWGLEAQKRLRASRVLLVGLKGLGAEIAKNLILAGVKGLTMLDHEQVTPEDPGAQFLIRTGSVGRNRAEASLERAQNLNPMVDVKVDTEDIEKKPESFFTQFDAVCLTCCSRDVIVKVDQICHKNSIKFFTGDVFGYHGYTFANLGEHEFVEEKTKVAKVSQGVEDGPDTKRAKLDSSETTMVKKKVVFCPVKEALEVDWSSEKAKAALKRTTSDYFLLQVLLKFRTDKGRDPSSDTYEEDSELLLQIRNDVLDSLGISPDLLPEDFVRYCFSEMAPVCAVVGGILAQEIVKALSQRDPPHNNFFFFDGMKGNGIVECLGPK

Take `NS(=O)(=O)OC[C@H]1C[C@@H](Nc2ncncc2C(=O)c2cc([C@@H]3OCCc4c(Cl)cccc43)cs2)C[C@@H]1O` (single isomer, unassigned) [I-301b, [(1R,2S,4R)-4-{[5-({4-[(1R)-5-chloro-3,4-dihydro-1H-isochromen-1-yl]-2-thienyl}carbonyl)pyrimidin-4-yl]amino}-2-hydroxycyclopentyl]methyl sulfamate or [(1R,2S,4R)-4-{[5-({4-[(1S)-5-chloro-3,4-dihydro-1H-isochromen-1-yl]-2-thienyl}carbonyl)pyrimidin-4-yl]amino}-2-hydroxycyclopentyl]methyl sulfamate]: the “Percent Inhibition” value is given as 100% and the 50% inhibitory concentration (IC50) was under 10 nM.

As for `Cc1nc2c(s1)[C@H](c1cc(C(=O)c3cncnc3N[C@@H]3C[C@H](COS(N)(=O)=O)[C@@H](O)C3)sc1C)OCC2` (single isomer, unassigned) [I-305a, [(1R,2S,4R)-2-hydroxy-4-{[5-({5-methyl-4-[(4S)-2-methyl-6,7-dihydro-4H-pyrano[4,3-d][1,3]thiazol-4-yl]-2-thienyl}carbonyl)pyrimidin-4-yl]amino}cyclopentyl]methyl sulfamate or [(1R,2S,4R)-2-hydroxy-4-{[5-({5-methyl-4-[(4R)-2-methyl-6,7-dihydro-4H-pyrano[4,3-d][1,3]thiazol-4-yl]-2-thienyl}carbonyl)pyrimidin-4-yl]amino}cyclopentyl]methyl sulfamate], the “Percent Inhibition” value is 28% and the IC50 lay in the range of 100 to 1000 nM.

Turning to `Cc1nc2c(s1)[C@H](c1cc(C(=O)c3cncnc3N[C@@H]3C[C@H](COS(N)(=O)=O)[C@@H](O)C3)sc1C)OCC2` (single isomer, unassigned) [I-305b, [(1R,2S,4R)-2-hydroxy-4-{[5-({5-methyl-4-[(4S)-2-methyl-6,7-dihydro-4H-pyrano[4,3-d][1,3]thiazol-4-yl]-2-thienyl}carbonyl)pyrimidin-4-yl]amino}cyclopentyl]methyl sulfamate or [(1R,2S,4R)-2-hydroxy-4-{[5-({5-methyl-4-[(4R)-2-methyl-6,7-dihydro-4H-pyrano[4,3-d][1,3]thiazol-4-yl]-2-thienyl}carbonyl)pyrimidin-4-yl]amino}cyclopentyl]methyl sulfamate], the “Percent Inhibition” value came out at 98% and the half-inhibitory concentration (IC50) was under 10 nM.

Consider `CN1CCc2ccc(Cl)cc2[C@@H]1c1csc(C(=O)c2cncnc2N[C@@H]2C[C@H](COS(N)(=O)=O)[C@@H](O)C2)c1` (single isomer, unassigned) [I-307a, [(1R,2S,4R)-4-{[5-({4-[(1R)-7-chloro-2-methyl-1,2,3,4-tetrahydroisoquinolin-1-yl]-2-thienyl}carbonyl)pyrimidin-4-yl]amino}-2-hydroxycyclopentyl]methyl sulfamate or [(1R,2S,4R)-4-{[5-({4-[(1S)-7-chloro-2-methyl-1,2,3,4-tetrahydroisoquinolin-1-yl]-2-thienyl}carbonyl)pyrimidin-4-yl]amino}-2-hydroxycyclopentyl]methyl sulfamate], for which the “Percent Inhibition” value is given as 45% and the IC50 was 100 to 1000 nM.

For `CN1CCc2ccc(Cl)cc2[C@@H]1c1csc(C(=O)c2cncnc2N[C@@H]2C[C@H](COS(N)(=O)=O)[C@@H](O)C2)c1` (single isomer, unassigned) [I-307b, [(1R,2S,4R)-4-{[5-({4-[(1R)-7-chloro-2-methyl-1,2,3,4-tetrahydroisoquinolin-1-yl]-2-thienyl}carbonyl)pyrimidin-4-yl]amino}-2-hydroxycyclopentyl]methyl sulfamate or [(1R,2S,4R)-4-{[5-({4-[(1S)-7-chloro-2-methyl-1,2,3,4-tetrahydroisoquinolin-1-yl]-2-thienyl}carbonyl)pyrimidin-4-yl]amino}-2-hydroxycyclopentyl]methyl sulfamate], the “Percent Inhibition” value turned out to be 97% and the concentration for half-maximal inhibition (IC50) is under 10 nM.

In the case of `NS(=O)(=O)OC[C@H]1C[C@@H](Nc2ncncc2C(=O)c2cc([C@@H]3OCc4ccc(Cl)cc43)c(Cl)s2)C[C@@H]1O` (single isomer, unassigned) [I-310a, [(1R,2S,4R)-4-{[5-({5-chloro-4-[(1R)-6-chloro-1,3-dihydro-2-benzofuran-1-yl]-2-thienyl}carbonyl)pyrimidin-4-yl]amino}-2-hydroxycyclopentyl]methyl sulfamate or [(1R,2S,4R)-4-{[5-({5-chloro-4-[(1S)-6-chloro-1,3-dihydro-2-benzofuran-1-yl]-2-thienyl}carbonyl)pyrimidin-4-yl]amino}-2-hydroxycyclopentyl]methyl sulfamate], the “Percent Inhibition” value is 27% and the IC50 lay within 100 to 1000 nM.

For `NS(=O)(=O)OC[C@H]1C[C@@H](Nc2ncncc2C(=O)c2cc([C@@H]3OCc4ccc(Cl)cc43)c(Cl)s2)C[C@@H]1O` (single isomer, unassigned) [I-310b, [(1R,2S,4R)-4-{[5-({5-chloro-4-[(1R)-6-chloro-1,3-dihydro-2-benzofuran-1-yl]-2-thienyl}carbonyl)pyrimidin-4-yl]amino}-2-hydroxycyclopentyl]methyl sulfamate or [(1R,2S,4R)-4-{[5-({5-chloro-4-[(1S)-6-chloro-1,3-dihydro-2-benzofuran-1-yl]-2-thienyl}carbonyl)pyrimidin-4-yl]amino}-2-hydroxycyclopentyl]methyl sulfamate], the “Percent Inhibition” value is on record as 98% and the IC50 was under 10 nM.

Consider `CN1CCc2ccc(Cl)cc2[C@@H]1c1cc(C(=O)c2cncnc2N[C@@H]2C[C@H](COS(N)(=O)=O)[C@@H](O)C2)sc1Cl` (single isomer, unassigned) [I-311a, [(1R,2S,4R)-4-{[5-({5-chloro-4-[(1R)-7-chloro-2-methyl-1,2,3,4-tetrahydroisoquinolin-1-yl]-2-thienyl}carbonyl)pyrimidin-4-yl]amino}-2-hydroxycyclopentyl]methyl sulfamate or [(1R,2S,4R)-4-{[5-({5-chloro-4-[(1S)-7-chloro-2-methyl-1,2,3,4-tetrahydroisoquinolin-1-yl]-2-thienyl}carbonyl)pyrimidin-4-yl]amino}-2-hydroxycyclopentyl]methyl sulfamate], for which the “Percent Inhibition” value was determined as 65% and the half-maximal inhibitory concentration (IC50) was 10 to 100 nM.

As to `CN1CCc2ccc(Cl)cc2[C@@H]1c1cc(C(=O)c2cncnc2N[C@@H]2C[C@H](COS(N)(=O)=O)[C@@H](O)C2)sc1Cl` (single isomer, unassigned) [I-311b, [(1R,2S,4R)-4-{[5-({5-chloro-4-[(1R)-7-chloro-2-methyl-1,2,3,4-tetrahydroisoquinolin-1-yl]-2-thienyl}carbonyl)pyrimidin-4-yl]amino}-2-hydroxycyclopentyl]methyl sulfamate or [(1R,2S,4R)-4-{[5-({5-chloro-4-[(1S)-7-chloro-2-methyl-1,2,3,4-tetrahydroisoquinolin-1-yl]-2-thienyl}carbonyl)pyrimidin-4-yl]amino}-2-hydroxycyclopentyl]methyl sulfamate], the “Percent Inhibition” value was 96% and the IC50 was under 10 nM.
